Measured values: patent US7470715B2, “Estrogen modulators” (Pfizer Inc., priority 2005, dated 2008)

Columns and labels:
[1] = molecular target: T1, ligand binding domain of the estrogen receptor alpha chain (ERαLBD) (Homo sapiens, UniProt P03372); experiment: ER agonist cell assay (ERα), Huh-7 co-transfection, luciferase; type: cell-based; conditions: for EC50: Huh-7 cells co-transfected with pG5luc and ERαLBD, overnight incubation, luciferase; for ERα % of Max E2 Response: percent of the maximum estradiol fold change, Huh-7, pG5luc and ERαLBD
T1 construct: expressed in transfected cells; host or cells: Huh-7 human hepatoma cells, transient transfection with FuGENE 6
T1 sequence (P03372 311-547 limits assumed): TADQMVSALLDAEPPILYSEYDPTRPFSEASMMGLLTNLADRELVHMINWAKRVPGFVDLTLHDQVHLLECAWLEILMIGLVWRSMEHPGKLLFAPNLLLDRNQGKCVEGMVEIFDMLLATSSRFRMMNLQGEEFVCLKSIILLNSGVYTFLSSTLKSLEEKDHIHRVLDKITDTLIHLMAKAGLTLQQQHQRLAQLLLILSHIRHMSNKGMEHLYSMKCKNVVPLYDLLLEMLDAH
Experimental: (§1) The compounds ability to mimic the effects of estrogen on the estrogen receptor were determined in a whole cell assay as described immediately below.
(§2) Experimental Procedure for ER Agonist Cell Assay
(§3) • Cell line and plasmids: The human hepatoma cell line Huh-7 was used for co-transfections. Cells were maintained in culture medium and split when they reached 80-90% confluency. Three plasmids were routinely used in the assay. pG5luc contained the firefly luciferase gene and was obtained from Promega. […] Cell Culture Media and Reagents:
(§4) Culture medium: DMEM (phenol red free), 10% charcoal treated HyClone serum, 1% L-glutamine, and 1% penicillin/streptomycin
(§5) Transfection medium: DMEM (phenol red free) and 10% charcoal treated HyClone serum
(§6) Luciferase reagents: Dual-Glo Luciferase Kit (Promega cat #E2980) was used for determination of luciferase activity.
(§7) Transient transfections were preformed using the lipophilic reagent FuGENE 6 (Roche). Cells were split and seeded at 7.2×10^6/150 cm^2 flask in 20 mL of transfection medium. 5-6 hrs later cells were co-transfected with either pG5luc and ERαLBD or pG5luc and ERβLBD(pm418). Transfected cells grew overnight and were then used the next day.
(§8) Cells transfected 24 hrs earlier were harvested, counted, and seeded in wells containing compound at a density of 1×10^4 cells/well. […] Cells were incubated overnight at 37° C. and 5% CO2 in the presence of compound. The following day medium was aspirated from the wells and 100 ul of Dual-Glo™ Luciferase Reagent were added to each well. Plates were incubated at room temperature for 20 minutes and firefly luminescence was measured on a luminometer. Next, 50 ul of Dual-Gbo™ Stop & Glo® Reagent were added to each well and after 20 minutes at room temperature the Renilla luminescence was measured on a luminometer. Values from each well were normalized by dividing the firefly luminescence by the Renilla luminescence. Estradiol was used as the standard and run in each assay. The fold induction over background for each compound was compared to the maximum fold induction for estradiol in each assay. […] Those compounds that were not tested, or the data was unavailable are marked as NT.

[2] = molecular target: ligand binding domain of the estrogen receptor beta chain (ERβLBD) that contained a point mutation at amino acid residue 418 (pm418) (Homo sapiens, UniProt Q92731); experiment: ER agonist cell assay (ERβ), Huh-7 co-transfection, luciferase; type: cell-based; conditions: for EC50: Huh-7 cells co-transfected with pG5luc and ERβLBD(pm418), overnight incubation, luciferase; for ERβ % of Max E2 Response: percent of the maximum estradiol fold change, Huh-7, pG5luc and ERβLBD(pm418)
Experimental: as §1, §2, §3, §4, §5, §6, §7, §8

[3] = system: hairless female SKH, 1-hr mice; experiment: Animal model for reversal of wrinkles: skin thickness model, topical dosing, skin thickness and hyaluronic acid; type: in vivo, mouse; conditions: QD, three days
Excerpt: Animal Model for Reversal of Wrinkles
Uzuka et al. describes an increase in mouse back skin water content, hyaluronic acid (HA) content, and hyaluronic acid synthetase activity following topical application or subcutaneous injection of estradiol (Biochimica et Biophysica Acta, 627, 199-206, 1980; Biochimica et Biophysica Acta 673, 387-393, 1981). […] Thus, this model may be used to as a preliminary screen to assess the potential for estrogen modulators to alleviate wrinkles in human skin.
The skin thickness model uses hairless female SKH, 1-hr mice. Mice aged to approximately 11 weeks are introduced into the laboratory environment and acclimated for at least 1 week prior to use in the study may be used. Each group typically consisted of 7 animals that may be run in parallel with vehicle and the positive control estradiol. Based on binding and/or cellular assay data, compounds are chosen for screening in this model. Those compounds include the products of Examples, 2, 9, 15, 46, 47, 48, 51, 52, 61, 135, and 137. Prior to topical application to mouse dorsal skin, a sufficient quantity of each compound is dissolved in a solvent generally consisting of ethanol and propylene glycol (70/30% v/v) (vehicle) to achieve the final concentration specified in Table C below. Animals are dosed topically QD or BID, for three days. Each dose consisted of 100 microliters of vehicle or drug applied uniformly to the entire dorsal surface (˜18 cm^2). All animals are sacrificed approximately 18-24 hours after the final dose. Skin thickness (ST) is measured using a caliper. HA is extracted from the skin and quantitated using commercially-available enzyme-linked immunosorbent assays (ELISAs)(HA).
Data are presented as percent of the estradiol response after subtracting out the ST for vehicle-treated mouse skin. The estradiol response is set to 100% and the vehicle resoibse becines 0%.

Row | Molecule | EC50 [1] [µM] | ERα % of Max E2 Response [1] [%] | EC50 [2] [µM] | ERβ % of Max E2 Response [2] [%] | HA (hyaluronic acid), percent of the estradiol response ([3]; 3% topical) [%] | ST (skin thickness), percent of the estradiol response ([3]; 3% topical) [%] | HA (hyaluronic acid), percent of the estradiol response ([3]; 1% topical) [%] | ST (skin thickness), percent of the estradiol response ([3]; 1% topical) [%]
1 | 1-[3-(4-Hydroxy-phenyl)-4-phenyl-isoxazol-5-yl]-cyclopropanecarboxylic acid isopropyl ester [Example 61] | 0.075 | 21.1 | > 10 | >1.83 | 38 | 32 | – | –
2 | CCCC(O)C1(c2onc(-c3ccc(O)cc3)c2-c2ccccc2)CC1 (racemic) [Example 15, (±)-4-{5-[1-(1-Hydroxy-butyl)-cyclopropyl]-4-phenyl-isoxazol-3-yl}-phenol] | 0.0243 | 43.8 | 0.15 | 15.6 | 47 | 41 | – | –
3 | CCCOCC1(c2onc(-c3ccc(O)cc3)c2-c2ccccc2)CC1 [Example 9, 4-[4-Phenyl-5-(1-propoxymethyl-cyclopropyl)-isoxazol-3-yl]-phenol] | 0.177 | 40.2 | 0.0413 | 2.63 | 58 | 49 | – | –
4 | O=C(OCC1(c2onc(-c3ccc(O)cc3)c2-c2ccccc2)CC1)C1CC1 [Example 51] | 0.152 | 63.8 | 0.0842 | 75.2 | – | – | 35 | 19
5 | O=C(OCc1ccccc1)C1(c2onc(-c3ccc(O)cc3)c2-c2ccccc2)CC1 [Example 92, 1-[3-(4-Hydroxy-phenyl)-4-phenyl-isoxazol-5-yl]-cyclopropanecarboxylic acid benzyl ester] | 0.0572 | 19.7 | > 10 | >1.04 | – | – | – | –
6 | CC(C)(C)COC(=O)C1(c2onc(-c3ccc(O)cc3)c2-c2ccccc2)CC1 [Example 93, 1-[3-(4-Hydroxy-phenyl)-4-phenyl-isoxazol-5-yl]-cyclopropanecarboxylic acid 2,2-dimethyl-propyl ester] | 0.0338 | 20.4 | > 10 | >0.813 | – | – | – | –
7 | CCCCOC(=O)C1(c2onc(-c3ccc(O)cc3)c2-c2ccccc2)CC1 [Example 94, 1-[3-(4-Hydroxy-phenyl)-4-phenyl-isoxazol-5-yl]-cyclopropanecarboxylic acid butyl ester] | 0.0293 | 24.3 | > 10 | >0.800 | – | – | – | –
8 | O=C(OCC1CCC1)C1(c2onc(-c3ccc(O)cc3)c2-c2ccccc2)CC1 [Example 95, 1-[3-(4-Hydroxy-phenyl)-4-phenyl-isoxazol-5-yl]-cyclopropanecarboxylic acid cyclobutylmethyl ester] | 0.0136 | 21.5 | > 10 | >0.728 | – | – | – | –
9 | CCOC(=O)C1(c2onc(-c3ccc(O)c(F)c3)c2-c2ccccc2)CC1 [Example 97, 1-[3-(3-Fluoro-4-hydroxy-phenyl)-4-phenyl-isoxazol-5-yl]-cyclopropanecarboxylic acid ethyl ester] | – | 19.7 | – | 1.08 | – | – | – | –
10 | OCC1(c2onc(-c3ccc(O)c(F)c3)c2-c2ccccc2)CC1 [Example 98, 2-Fluoro-4-[5-(1-hydroxymethyl-cyclopropyl)-4-phenyl-isoxazol-3-yl]-phenol] | 0.985 | 46 | 0.799 | 36.8 | – | – | – | –
11 | CC(=O)C1(c2onc(-c3ccc(O)cc3)c2-c2ccccc2)CC1 [Example 101, 1-{1-[3-(4-Hydroxy-phenyl)-4-phenyl-isoxazol-5-yl]-cyclopropyl}-ethanone] | 0.122 | 58.3 | – | 13.6 | – | – | – | –

Second part, led by results:

Row | EC50 [1] [µM] | ERα % of Max E2 Response [1] [%] | EC50 [2] [µM] | ERβ % of Max E2 Response [2] [%] | Molecule | HA (hyaluronic acid), percent of the estradiol response ([3]; 3% topical) [%] | ST (skin thickness), percent of the estradiol response ([3]; 3% topical) [%] | HA (hyaluronic acid), percent of the estradiol response ([3]; 1% topical) [%] | ST (skin thickness), percent of the estradiol response ([3]; 1% topical) [%]
12 | – | 10.2 | – | 1.21 | CNCC1(c2onc(-c3ccc(O)cc3)c2-c2ccccc2)CC1 [Example 103, 4-[5-(1-methylaminomethyl-cyclopropyl)-4-phenyl-isoxazol-3-yl]-phenol] | – | – | – | –
13 | 0.0251 | 15 | > 10 | >0.789 | Oc1ccc(-c2noc(C3(c4nnc(-c5ccc(O)cc5O)o4)CC3)c2-c2ccccc2)cc1 [Example 118, 4-(5-{1-[3-(4-hydroxyphenyl)-4-phenylisoxazol-5-yl]cyclopropyl}-1,3,4-oxadiazol-2-yl)benzene-1,3-diol] | – | – | – | –
14 | 0.469 | 22.3 | > 10 | >3.74 | CCOc1ccc(-c2nnc(C3(c4onc(-c5ccc(O)cc5)c4-c4ccccc4)CC3)o2)cc1 [Example 119, 4-(5-{1-[5-(4-ethoxyphenyl)-1,3,4-oxadiazol-2-yl]cyclopropyl}-4-phenylisoxazol-3-yl)phenol] | – | – | – | –
15 | 0.0715 | 21.9 | > 10 | >0.756 | Oc1ccc(-c2noc(C3(c4nnc(-c5ccccc5O)o4)CC3)c2-c2ccccc2)cc1 [Example 122, 2-(5-{1-[3-(4-hydroxyphenyl)-4-phenylisoxazol-5-yl]cyclopropyl}-1,3,4-oxadiazol-2-yl)phenol] | – | – | – | –
16 | 0.0469 | 35.9 | > 10 | >0.658 | COc1cccc(-c2nnc(C3(c4onc(-c5ccc(O)cc5)c4-c4ccccc4)CC3)o2)c1 [Example 123, 4-(5-{1-[5-(3-methoxyphenyl)-1,3,4-oxadiazol-2-yl]cyclopropyl}-4-phenylisoxazol-3-yl)phenol] | – | – | – | –
17 | 0.152 | 24.4 | > 10 | >0.539 | Oc1ccc(-c2nnc(C3(c4onc(-c5ccc(O)cc5)c4-c4ccccc4)CC3)o2)cc1 [Example 124, 4-(5-{1-[5-(4-hydroxyphenyl)-1,3,4-oxadiazol-2-yl]cyclopropyl}-4-phenylisoxazol-3-yl)phenol] | – | – | – | –
18 | 0.419 | 22.1 | > 10 | >0.535 | Oc1ccc(-c2noc(C3(c4nnc(-c5cccc(O)c5)o4)CC3)c2-c2ccccc2)cc1 [Example 125, 3-(5-{1-[3-(4-hydroxyphenyl)-4-phenylisoxazol-5-yl]cyclopropyl}-1,3,4-oxadiazol-2-yl)phenol] | – | – | – | –
19 | ≥ 10 | 19.1 | > 10 | 0.625 | COc1ccc(-c2nnc(C3(c4onc(-c5ccc(O)cc5)c4-c4ccccc4)CC3)o2)cc1 [Example 129, 4-(5-{1-[5-(4-methoxyphenyl)-1,3,4-oxadiazol-2-yl]cyclopropyl}-4-phenylisoxazol-3-yl)phenol] | – | – | – | –
